{
  "source": "patent US20020177624A1",
  "about": "“Acetate-lactate buffering vaginal gel and for method of making same and treating bacterial vaginosis” (priority 2001, published 2002)",
  "origin": "cited, not measured here",
  "tested_on": "bacterial vaginosis",
  "settings": "oral administration",
  "data": [
    {"smiles": "Cc1ncc([N+](=O)[O-])n1CCO", "note": "[metronidazole]", "values": [
      {"measurement": "success of treatment of bacterial vaginosis", "value": "often highly successful"}
    ]}
  ]
}
